Reference: PubChem BioAssay (NCI)
Several values for one entry are separate records, joined by “and”; a condition that tells them apart may be missing. Equal entries are not always repeated.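 Protocol summary: plate cells (96-well), add compound at 5 concentrations, incubate 48 h, interpolate endpoints linearly. GI50 is the concentration that inhibits growth by half. TGI: total growth inhibition.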

Tests used:
Assay in all cases: NCI tumour cell line growth inhibition, 48 h
HCC-2998 colon = system: HCC-2998 colon
KM12 colon = system: KM12 colon
OVCAR-3 ovarian = system: OVCAR-3 ovarian
SW-620 colon = system: SW-620 colon
K-562 leukemia = system: K-562 leukemia
SK-MEL-28 melanoma = system: SK-MEL-28 melanoma
OVCAR-4 ovarian = system: OVCAR-4 ovarian
UACC-62 melanoma = system: UACC-62 melanoma
SNB-75 CNS = system: SNB-75 CNS
CCRF-CEM leukemia = system: CCRF-CEM leukemia
SK-OV-3 ovarian = system: SK-OV-3 ovarian
DU-145 prostate = system: DU-145 prostate
MOLT-4 leukemia = system: MOLT-4 leukemia

Structure (SMILES): C1COC2SC3=C(SC(=C4SC5=C(SCCS5)S4)S3)SC2O1 (stereo unspecified)
- TGI (HCC-2998 colon): > 100 µM
- TGI (KM12 colon): > 100 µM
- TGI (OVCAR-3 ovarian): > 100 µM
- TGI (SW-620 colon): > 100 µM
- TGI (K-562 leukemia): > 100 µM
- TGI (SK-MEL-28 melanoma): > 100 µM
- TGI (OVCAR-4 ovarian): > 100 µM
- TGI (UACC-62 melanoma): > 100 µM
- TGI (SNB-75 CNS): > 100 µM
- TGI (CCRF-CEM leukemia): > 100 µM
- TGI (SK-OV-3 ovarian): > 100 µM
- TGI (DU-145 prostate): > 100 µM
- TGI (MOLT-4 leukemia): > 100 µM

Structure (SMILES): CCOC(=O)CSc1nc(-c2ccc(OC)cc2)c(C#N)c(=O)[nH]1
- TGI (HCC-2998 colon): > 100 µM
- TGI (KM12 colon): > 100 µM
- TGI (OVCAR-3 ovarian): > 100 µM
- TGI (SW-620 colon): > 100 µM
- TGI (K-562 leukemia): > 100 µM
- TGI (SK-MEL-28 melanoma): > 100 µM
- TGI (OVCAR-4 ovarian): > 100 µM
- TGI (UACC-62 melanoma): > 100 µM
- TGI (SNB-75 CNS): > 100 µM
- TGI (CCRF-CEM leukemia): > 100 µM
- TGI (SK-OV-3 ovarian): > 100 µM
- TGI (DU-145 prostate): > 100 µM
- TGI (MOLT-4 leukemia): > 100 µM

Structure (SMILES): CC1OC(OC2C(OC(=O)[C@]34CCC(C)(C)C[C@H]3C3=CC[C@@H]5[C@@]6(C)CC[C@H](OC7OC(C(=O)O)C(O)C(O)C7O)C(C)(C)[C@@H]6CC[C@@]5(C)[C@]3(C)CC4)OCC(O)C2O)C(O)C(O)C1OC1OCC(O)C(O)C1O (stereo partly specified)
- TGI (HCC-2998 colon): 33.6 µM and 34 µM
- GI50 (KM12 colon): 37.9 µM and 17.1 µM
- TGI (KM12 colon): > 100 µM and 34 µM
- TGI (OVCAR-3 ovarian): > 100 µM
- GI50 (SW-620 colon): 98 µM and 45.1 µM
- TGI (SW-620 colon): > 100 µM
- GI50 (K-562 leukemia): 58.7 µM and 28 µM
- TGI (K-562 leukemia): > 100 µM and 76.9 µM
- TGI (SK-MEL-28 melanoma): 34.4 µM and 58.9 µM
- TGI (OVCAR-4 ovarian): > 100 µM
- TGI (UACC-62 melanoma): 86.5 µM and > 100 µM
- GI50 (SNB-75 CNS): 80.6 µM and 24.7 µM
- TGI (SNB-75 CNS): > 100 µM and 76.8 µM
- TGI (CCRF-CEM leukemia): > 100 µM
- TGI (SK-OV-3 ovarian): > 100 µM
- GI50 (DU-145 prostate): > 100 µM and 45.9 µM
- TGI (DU-145 prostate): > 100 µM
- GI50 (MOLT-4 leukemia): > 100 µM and 36.9 µM
- TGI (MOLT-4 leukemia): > 100 µM

Structure (SMILES): Cc1ccc2c(c1)C(=O)/C(=C1/CCc3ccc(C)cc31)C2
- TGI (HCC-2998 colon): > 100 µM
- TGI (KM12 colon): > 100 µM
- TGI (OVCAR-3 ovarian): > 100 µM
- TGI (SW-620 colon): > 100 µM
- TGI (K-562 leukemia): > 100 µM
- TGI (SK-MEL-28 melanoma): > 100 µM
- TGI (OVCAR-4 ovarian): > 100 µM
- TGI (UACC-62 melanoma): > 100 µM
- TGI (SNB-75 CNS): 71.1 µM
- TGI (CCRF-CEM leukemia): > 100 µM
- TGI (SK-OV-3 ovarian): > 100 µM
- TGI (DU-145 prostate): > 100 µM
- TGI (MOLT-4 leukemia): > 100 µM

Structure (SMILES): COc1ccc(NC(=O)C(=O)C(CC2C(=O)NC(=S)NC2=O)C(=O)c2ccc3ccccc3c2)c([N+](=O)[O-])c1 (stereo unspecified)
- TGI (HCC-2998 colon): > 100 µM
- TGI (KM12 colon): > 100 µM
- TGI (OVCAR-3 ovarian): > 100 µM
- TGI (SW-620 colon): > 100 µM
- TGI (K-562 leukemia): > 100 µM
- TGI (SK-MEL-28 melanoma): > 100 µM
- TGI (OVCAR-4 ovarian): > 100 µM
- TGI (UACC-62 melanoma): > 100 µM
- TGI (SNB-75 CNS): > 100 µM
- TGI (CCRF-CEM leukemia): > 100 µM
- TGI (SK-OV-3 ovarian): > 100 µM
- TGI (DU-145 prostate): > 100 µM
- TGI (MOLT-4 leukemia): > 100 µM
